In test [1] the target is T1, 5-hydroxytryptamine receptor 1A (Homo sapiens, UniProt P08908).
T1 sequence (P08908 whole entry): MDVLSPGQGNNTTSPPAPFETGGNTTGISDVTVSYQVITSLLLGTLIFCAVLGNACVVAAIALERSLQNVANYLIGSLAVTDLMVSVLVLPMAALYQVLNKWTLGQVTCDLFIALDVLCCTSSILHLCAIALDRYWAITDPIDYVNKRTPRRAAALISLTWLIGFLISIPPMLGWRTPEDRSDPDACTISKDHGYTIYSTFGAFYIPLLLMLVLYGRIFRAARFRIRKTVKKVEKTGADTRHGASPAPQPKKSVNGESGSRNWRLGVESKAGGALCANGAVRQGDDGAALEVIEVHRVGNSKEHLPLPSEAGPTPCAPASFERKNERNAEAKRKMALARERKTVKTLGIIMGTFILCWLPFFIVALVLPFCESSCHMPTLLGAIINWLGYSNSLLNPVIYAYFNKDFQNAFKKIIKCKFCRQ
The test can be described thus: biochemical.
Description: Displacement of [3H]-WAY100635 from human 5-HT1A receptor expresssed in stable CHO cell membrane incubated for 90 mins by microbeta counting method

Test [2] has as its target 5-hydroxytryptamine receptor 2A (Homo sapiens, UniProt P28223). The conditions noted are these: for pKi: read-out: Ki.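 On all read-outs here: [3H]-Ketanserin displacement from the 5-HT2A receptor after 90 min incubation, with bound label read by MicroBeta counting.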
Description: Displacement of [3H]-Ketanserin from 5-HT2A receptor (unknown origin) incubated for 90 mins by microbeta counting method
The target of test [3] is T2, 5-hydroxytryptamine receptor 6 (Homo sapiens, UniProt P50406). The test is described as follows: biochemical.
Test [4] concerns the target 5-hydroxytryptamine receptor 7 (Homo sapiens, UniProt P34969). The test is described as follows: biochemical.
Description: Displacement of [3H]-LSD from human 5-HT7A receptor expresssed in stable HEK cell membrane incubated for 90 mins by microbeta counting method
For test [5], the target named is T2, 5-hydroxytryptamine receptor 6. The test can be described thus: Displacement of [3H]-LSD from human 5-HT6 receptor expresssed in stable HEK cell membrane incubated for 90 mins by microbeta counting method. Background: In a radioligand displacement assay an active substance lowers the binding of a labelled ligand.
Test [6] shares this target.

SMILES strings stand for the structures. pKi: −log10 of the molar value.

T2 sequence (P50406 whole entry): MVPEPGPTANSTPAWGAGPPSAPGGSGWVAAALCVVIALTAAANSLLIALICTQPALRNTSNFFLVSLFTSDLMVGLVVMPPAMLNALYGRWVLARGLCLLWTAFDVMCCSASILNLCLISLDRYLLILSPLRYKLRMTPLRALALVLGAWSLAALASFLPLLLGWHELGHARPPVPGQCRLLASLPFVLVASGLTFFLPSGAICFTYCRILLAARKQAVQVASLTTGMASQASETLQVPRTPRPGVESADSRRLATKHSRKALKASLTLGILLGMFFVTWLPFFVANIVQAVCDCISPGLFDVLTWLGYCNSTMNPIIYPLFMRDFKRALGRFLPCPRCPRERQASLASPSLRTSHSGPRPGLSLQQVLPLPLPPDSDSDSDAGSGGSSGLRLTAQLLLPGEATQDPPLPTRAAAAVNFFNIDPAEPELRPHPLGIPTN
Chain of 5-hydroxytryptamine receptor 2A (P28223 whole entry): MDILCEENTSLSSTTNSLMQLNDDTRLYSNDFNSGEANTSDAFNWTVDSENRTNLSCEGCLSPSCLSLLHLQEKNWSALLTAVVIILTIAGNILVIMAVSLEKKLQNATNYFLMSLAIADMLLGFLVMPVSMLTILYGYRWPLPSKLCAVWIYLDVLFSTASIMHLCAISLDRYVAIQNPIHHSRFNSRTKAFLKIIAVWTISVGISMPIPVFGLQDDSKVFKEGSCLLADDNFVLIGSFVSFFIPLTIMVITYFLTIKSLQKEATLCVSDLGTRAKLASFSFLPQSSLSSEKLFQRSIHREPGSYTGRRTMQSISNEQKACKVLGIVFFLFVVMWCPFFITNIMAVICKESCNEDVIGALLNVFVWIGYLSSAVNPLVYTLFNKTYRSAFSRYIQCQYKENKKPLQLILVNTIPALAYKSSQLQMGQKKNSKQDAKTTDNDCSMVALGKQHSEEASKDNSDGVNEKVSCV
Chain of 5-hydroxytryptamine receptor 7 (P34969 whole entry): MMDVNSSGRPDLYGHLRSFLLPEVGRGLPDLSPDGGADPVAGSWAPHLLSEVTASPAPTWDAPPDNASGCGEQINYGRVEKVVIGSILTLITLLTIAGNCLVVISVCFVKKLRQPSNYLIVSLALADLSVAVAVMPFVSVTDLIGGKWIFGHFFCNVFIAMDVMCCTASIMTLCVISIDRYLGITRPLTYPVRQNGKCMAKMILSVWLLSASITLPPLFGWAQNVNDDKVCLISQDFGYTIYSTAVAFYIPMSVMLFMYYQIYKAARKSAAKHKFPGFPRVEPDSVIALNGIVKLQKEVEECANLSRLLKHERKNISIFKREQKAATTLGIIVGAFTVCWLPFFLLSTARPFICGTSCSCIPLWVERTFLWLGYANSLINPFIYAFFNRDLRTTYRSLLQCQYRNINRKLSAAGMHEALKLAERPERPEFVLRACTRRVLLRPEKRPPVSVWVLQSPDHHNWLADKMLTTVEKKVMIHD

A word on the pKi: it is −log10 of the Ki, conventionally taken in molar units. For the compound `CCCC(=O)Nc1ccc2c(c1)-c1c(OCC3CC3)c(OC)cc3c1C(C2)N(C)CC3` (racemic), the pKi in test [1] is 6.37; in test [2], 6.18; in test [3], 6.49; in test [4], 6.40.
Take `C#CCOc1c(OC)cc2c3c1-c1cc(NC(N)=O)ccc1CC3N(C)CC2` (racemic): the negative-log Ki (pKi) in test [1] was 6.04; in test [3], 6.39; in test [4], 6.91. In test [2], the Ki result is “Not Active”.
As a reminder, the inhibition is the percentage by which the read-out fell short of the control. Lower therefore signals little suppression. Regarding `CCCN1CCc2cccc3c2C1Cc1ccc(N)cc1-3` (stereo unspecified), the pKi is 7.52 in test [1] and 7.20 in test [4]. Besides, the Ki entry in test [2] and in test [6] was “Not Active” each time. Further, the inhibition in test [5] is < 50%.
On to `COc1cc2c3c(c1OCC1CC1)-c1cc(N(C)C)ccc1CC3N(C)CC2` (racemic), for which the pKi in test [1] is 5.84; in test [2], 6.06; in test [3] it was 6.48; in test [4], 6.12.
In the case of `C#CCOc1c(OC)cc2c3c1-c1cc(NC(=O)CCC)ccc1CC3N(C)CC2` (racemic), the pKi is 6.18 in test [1], 5.98 in test [2], 6.45 in test [3] and 6.34 in test [4].
`COc1cc2c3c(c1OCC1CC1)-c1cc(NS(C)(=O)=O)ccc1CC3N(C)CC2` (racemic): the pKi is 6.41 in test [1], 6.36 in test [2], 6.30 in test [3] and 6.94 in test [4].
Taken in the same sequence, the figures for `COc1cc2c3c(c1OCC1CC1)-c1cc(NC(N)=O)ccc1CC3N(C)CC2` (racemic) were 5.89, 6.07, 6.28 and 6.45.
For `COc1cc2c3c(c1OC)-c1cc(N(C)C)ccc1CC3N(C)CC2` (racemic) the same measures were 5.80, 6.53, 6.90 and 7.14.
On to `C#CCOc1c(OC)cc2c3c1-c1cc(NS(C)(=O)=O)ccc1CC3N(C)CC2` (racemic), for which the pKi is 6.29 in test [1], 5.88 in test [2], 6.66 in test [3] and 7.51 in test [4].
For `CCCN1CCc2cccc3c2C1Cc1ccc2nc(N)sc2c1-3` (racemic), the negative logarithm of the Ki (pKi) in test [1] was 7.03. In addition, the Ki entry in test [2] and in test [6] was “Not Active” throughout. For the same compound, in test [5], the inhibition was < 50%.
With `CN1CCc2cccc3c2C1Cc1ccc(NS(C)(=O)=O)cc1-3` (racemic), the negative logarithm of the Ki (pKi) is 6.88 in test [1] and 7.57 in test [4]. Moreover, the Ki entry in test [2] and in test [6] was “Not Active” in each case. In addition, in test [5], the inhibition was < 50%.
Regarding `CCCC(=O)Nc1ccc2c(c1)-c1c(OC)c(OC)cc3c1C(C2)N(C)CC3` (racemic), the pKi was 6.33 in test [1], 6.38 in test [2], 6.45 in test [3] and 7.17 in test [4].
For `C=CCOc1c(OC)cc2c3c1-c1cc(NC(=O)CCC)ccc1CC3N(C)CC2` (racemic) the same measures were 6.33, 6.35, 6.70 and 6.73.
For `COc1cc2c3c(c1OCC1CC1)-c1cc(NC(C)=O)ccc1CC3N(C)CC2` (racemic) the same measures were 5.81, 6.01, 5.82 and 6.20.
Regarding `C=CCOc1c(OC)cc2c3c1-c1cc(NS(C)(=O)=O)ccc1CC3N(C)CC2` (racemic), the pKi in test [1] is 6.39; in test [2], 6.18; in test [3], 6.23; in test [4], 7.38.
For `CN(C)c1ccc2c(c1)-c1cccc3c1C(C2)N(C)CC3` (racemic) the same measures were 6.34, 6.25, 5.80 and 7.77.

These data come from ChEMBL document CHEMBL4622954, “Structural manipulation of aporphines via C10 nitrogenation leads to the identification of new 5-HT7AR ligands” (Bioorg Med Chem, 2020).
